US10117919B2, “Methods and materials for generating CD8+ T cells having the ability to recognize cancer cells expressing a HER2/neu polypeptide” (Mayo Foundation for Medical Education and Research, priority 2012, dated 2018)

Assays:
immunoproteasome = experiment: In vitro cleavage of HER-2/neu 19-mer by purified immunoproteasome; type: biochemical; conditions: from HER-2/neu 19-mer (364-382)
Method: (§1) The following was performed to determine if E75 is processed from HER-2/neu or HER-2/neu fragments by multi-subunit enzymes referred to as the proteasome and immunoproteasome, which are required for loading of polypeptide onto MHC class I molecules. […] (SEQ ID NO:3), was synthesized. […] The 19-mer was then cleaved using purified 20S proteasome and immunoproteasome.

20S proteasome = experiment: In vitro cleavage of HER-2/neu 19-mer by purified 20S proteasome; type: biochemical; conditions: from HER-2/neu 19-mer (364-382)
Method: as §1

[1] = system: 20S proteasome and immunoproteasome; experiment: Processing of longer HER-2/neu polypeptides (19-mer, 23-mer) treated with the proteasomes; type: biochemical
Method: as §1

[2] = system: HLA-A2 / HLA-ABC restricted T cell reactivity; experiment: IFN-γ release of generated T cells in presence of neutralizing HLA-A2 or HLA-ABC antibodies; type: cell-based, human; conditions: versus control isotype matched antibody
[3] = system: target cells pulsed with polypeptide; experiment: IFN-γ ELIspot of polypeptide-generated CD8+ T cell lines against polypeptide-pulsed target cells; type: cell-based, human
[4] = system: breast cancer cell lines that express varying levels of HER-2/neu; type: cell-based, human
breast cancer cell lines = experiment: Cytotoxic T cell assay: lysis of breast cancer cells by polypeptide-generated CD8+ T cells; type: cell-based, human; conditions: compared to CD8+ T cells generated using p369-377
Method: Another in vitro assay was performed to measure lysis of the breast cancer cells by the T cells.

tumor cells = experiment: Tumor cell lysis by generated T cells in presence of neutralizing HLA-A2 or HLA-ABC antibodies; type: cell-based, human

Sequence | Peptide generated by immunoproteasome (immunoproteasome) | Peptide generated by proteasome (20S proteasome) | further results
AFLPESFD (homo sapiens) | + | + | –
FAGCKKIFGS (homo sapiens) | + | + | –
FAGCKKIFGSL (homo sapiens) [HER-2/neu amino acids 364-374] | + | + | –
FAGCKKIFGSLAFLPESFD (homo sapiens) [19-mer polypeptide, substrate of the cleavage assay] | – | – | Processing by purified 20S proteasome and immunoproteasome ([1]; 19-mer FAGCKKIFGSLAFLPESFD as substrate): consistently found to be processed into several other shorter polypeptides
FGSLAFLPES (homo sapiens) [HER-2/neu amino acids 371-380] | + | + | –
FGSLAFLPESF (homo sapiens) [HER-2/neu amino acids 371-381] | + | + | –
GSLAFLPESF (homo sapiens) [HER-2/neu amino acids 372-381] | + | + | –
GSLAFLPESFD (homo sapiens) | + | + | –
LAFLPESFD (homo sapiens) | + | + | –
SLAFLPESF (homo sapiens) | + | + | –
SLAFLPESFD (homo sapiens) | + | + | Reactivity (IFN-γ release) of generated T cells with neutralizing HLA-A2 or HLA-ABC antibody [2]: markedly suppressed; Recognition of polypeptide-pulsed target cells by T cells generated with the polypeptide [3]: recognized target cells pulsed with either the p373-382 polypeptide or the p369-377 polypeptide; Recognition of breast cancer cells by CD8+ T cells generated with the polypeptide [4]: able to recognize the breast cancer cells at much higher levels; Release from 23-mer treated with the proteasomes ([1]; 23-mer containing p373-382 as substrate): released from the 23-mer; Lysis of breast cancer cell lines by CD8+ T cells generated with the polypeptide (breast cancer cell lines): recognized and lysed all tested breast cancer cell lines at much higher levels; Lysis of tumor cells by generated T cells with neutralizing HLA-A2 or HLA-ABC antibody (tumor cells): blocked lysis of tumor cells
